Patent US20140356416A1, “LIPOSOMAL DRUG ENCAPSULATION” (priority 2011, published 2014)

Columns and labels:
[1] = Acute toxicity of free staurosporine at high dose; assay type: in vivo; settings: 5 mg/Kg
Source text: Future, more comprehensive studies will use even lower doses of staurosporine alone, and in combination with other agents.

[2] = Reverse pH gradient drug encapsulation efficiency in liposomes; assay type: physicochemical; settings: for drug encapsulation: reverse pH gradient technology, FIG. 10
Procedure: The dried lipid film was hydrated with a buffer containing either ammonium phosphate, ammonium sulfate, sodium phosphate, or sodium sulfate (300 mM, pH 7.4) and vortexed for 1 minute to remove any adhering lipid film. Sonication in a bath sonicator (ULTRAsonik 28X) for 1 minute at room temperature produced multilamellar vesicles (MLV). MLVs were then sonicated with a Ti-probe (Branson 450 sonifier) for 2 minutes to produce small unilamellar vesicles (SUV), indicated by the formation of a translucent solution. Extrusion through a 100 nm pore size polycarbonate filter (Whatman) was the final stage of a stepwise series of extrusions to reduce SUV size.
The prepared liposomes with internal buffer at pH 3 or 7.4 were passed through a Sephadex G-50 column equilibrated with HEPES buffered saline (HBS; 20 mM HEPES, 150 mM NaCl, pH 7.4) to exchange the external buffer. […] The solution was heated at 50° C. for 20 minutes, left to stand 4 hours at room temperature, and then applied to a Sephadex G-50 column and eluted with MilliQ water.

U87 cells = assay: In vivo anti-tumor activity, very large U87 flank tumors (180-200 mm^3); settings: treatment over two weeks
[3] = 0.8 mg/Kg injected as free drug, 'would very likely be' (Gurley et al.); cited from earlier work

Compound | acute toxicity [1] | liposomal loading capacity, peak value ([2]; drug to lipid ratio 0.09 (mole/mole)) | increase of encapsulation when a gradient existed ([2]; internal buffer pH 7.4 versus pH 3, external buffer pH 3) | encapsulation rate ([2]; internal pH 5, external pH 7.4) | body weight (U87 cells) | tumor growth (U87 cells; relative to PBS (p<0.004)) | fraction cleared after one circulatory pass [3] | drug encapsulation [2]
CN[C@@H]1C[C@H]2O[C@@](C)([C@@H]1OC)n1c3ccccc3c3c4c(c5c6ccccc6n2c5c31)C(=O)NC4 [staurosporine, (9S,10R,11R,13R)-2,3,10,11,12,13-Hexahydro-10-methoxy-9-methyl-11-(methylamino)-9,13-epoxy-1H,9H-diindolo[1,2,3-gh:3′,2′,1′-1m]pyrrolo[3,4-j][1,7]benzodiazonin-1-one] | acutely lethal | 70% | 14 fold | very low | body weight did decline | no demonstrable effect | 99% | –
COc1cc2ncnc(Nc3ccc(F)c(Cl)c3)c2cc1OCCCN1CCOCC1 [Gefitinib, N-(3-chloro-4-fluoro-phenyl)-7-methoxy-6-(3-morpholin-4-ylpropoxy)quinazolin-4-amine] | – | – | – | – | – | – | – | good efficacy
O=c1cc(N2CCOCC2)oc2c(-c3ccccc3)cccc12 [LY29004] | – | – | – | – | – | – | – | good efficacy
